Test results reported in patent US20260355150A1 (Sumitomo Pharma America, Inc., priority 2022, published 2026).

Key:
[1] = Rat learned helplessness model (active avoidance); conditions: helpless rats; for escape failures (Mean ± SEM) / inter-trial interval (ITI) crossings (Mean ± SEM): 32 mg/kg, po bid
Experimental: In this model, rats are first exposed to inescapable foot shock to induce a helpless state which is then expressed by a subsequent failure to learn to avoid escapable foot shocks (active avoidance).
Helplessness was induced on Day 1 in 5 of the groups by exposing animals to inescapable foot shocks delivered through an electrified stainless steel grid floor every 15 seconds for 1 h. […] Treatment continued on days 2-5 with all subjects receiving test agent or vehicle twice daily (AM and PM). Active avoidance was tested 60 min after the morning dose on Days 3, 4 and 5. All rats were tested in a 2-compartment active avoidance chamber where delivery of foot shock was signaled by a light cue. The test session began with 5 min of free exploration after which 30 stimulus-shock trials were delivered during a 15 min period. Each trial lasted 30 seconds with an initial 24 second rest period, followed by a 6 second light cue presentation with foot shock delivered during the last 3 seconds. […] Failure to avoid full delivery of the foot shock (i.e., failing to cross during 3 second shock presentation) was considered an escape failure. Crossings to the opposite compartment of the shuttle box during the 24 second rest period were recorded as inter-trial interval (ITI) crossings. Escape failures and ITI crossings were analyzed by two way repeated measures ANOVA with treatment as a main factor and test session (i.e., day) as the repeated measure.

[2] = Rat forced swim test, second study (one administration 24 h prior to testing); conditions: 10 mg/kg, ip, positive control, of 60 observations in 5 min, p < 0.05 vs vehicle (footnote a)
Experimental: In both procedures, rats were pre-exposed to a 15 min swim session (day 0) prior to the 5 min FST session which was conducted 24 h later (day 1).
In the second study, adult, male Sprague-Dawley rats (190-234 g, n=10 per group) were dosed on only one occasion immediately after the pre-swim i.e., 24 h prior to testing. […] Behavior was quantified during the 5 min test session using a time sampling technique where the actual behavior observed, i.e., immobility, climbing or swimming, was recorded every 5 seconds for a total of 60 observations. Results were analyzed by one way ANOVA followed by Dunnett's post hoc comparisons.

[3] = literature (Ardalan 2017; Cryan 2005; Koike 2014); acute treatment; cited from earlier work

In the case of `CN(C)CCCN1c2ccccc2CCc2ccccc21` [Imipramine], the “escape failures, significance” value ([1]; 32 mg/kg po bid) is reported as “significant reduction in escape failures”, the “escape failures (Mean ± SEM)” value ([1]; Day 3) is reported as 3 ± 1 and the “inter-trial interval (ITI) crossings (Mean ± SEM)” value ([1]; Day 3) is reported as 17 ± 2. For the same compound, the “inter-trial interval (ITI) crossings (Mean ± SEM)” value ([1]; Day 4) was 12 ± 2, the “escape failures (Mean ± SEM)” value ([1]; Day 4, p < 0.05 vs helpless/vehicle (footnote a)) was 3 ± 2^a and the “inter-trial interval (ITI) crossings (Mean ± SEM)” value ([1]; Day 5) was 15 ± 2. The “escape failures (Mean ± SEM)” value ([1]; Day 5, p < 0.05 vs helpless/vehicle (footnote a)) was 2 ± 1^a.
For `CNC1(c2ccccc2Cl)CCCCC1=O` (stereo not drawn) [Ketamine], the “Immobility frequency (Mean ± SEM)” value [2] is listed as 22.9 ± 3.5^a and the “antidepressant-like effects in this dosing protocol (rat FST, dosed 24 h prior to testing)” value [3] is listed as “antidepressant-like effects”.
